The source of these data is patent US20120251551A1, “Substituted (Heteroarylmethyl)thiohydantoins” (BAYER PHARMA AKTIENGESELLSCHAFT, priority 2009, published 2012).

SMILES strings stand for the structures. Read-outs that look alike come from different tables or passages of the source.

Data set [1] has as its system VCaP cells. Kind of data set: Proliferation assay with VCaP cells. Format: cell-based. As to conditions: Homo sapiens, 168 h, R1881 (1×10^−10) stimulated growth. An outline of the steps:
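Cells in DMEM with 10% charcoal-stripped serum treated one day after seeding with R1881 (1×10^−10) plus compound. Cell number read by Alamar Blue fluorescence (ex 530/em 590 nm) at day 0 and day 7; day-7 R1881-only signal defines stimulated growth, day-7 signal without R1881 defines basal level.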

The target in data set [2] is T1, human androgen receptor W741L mutant (Homo sapiens, UniProt P10275, W742L).
T1 construct: expressed in transfected cells; host or cells: PC-3 cells, transient transfection with a pSG5-derived plasmid
T1 sequence (P10275 1-920 W742L): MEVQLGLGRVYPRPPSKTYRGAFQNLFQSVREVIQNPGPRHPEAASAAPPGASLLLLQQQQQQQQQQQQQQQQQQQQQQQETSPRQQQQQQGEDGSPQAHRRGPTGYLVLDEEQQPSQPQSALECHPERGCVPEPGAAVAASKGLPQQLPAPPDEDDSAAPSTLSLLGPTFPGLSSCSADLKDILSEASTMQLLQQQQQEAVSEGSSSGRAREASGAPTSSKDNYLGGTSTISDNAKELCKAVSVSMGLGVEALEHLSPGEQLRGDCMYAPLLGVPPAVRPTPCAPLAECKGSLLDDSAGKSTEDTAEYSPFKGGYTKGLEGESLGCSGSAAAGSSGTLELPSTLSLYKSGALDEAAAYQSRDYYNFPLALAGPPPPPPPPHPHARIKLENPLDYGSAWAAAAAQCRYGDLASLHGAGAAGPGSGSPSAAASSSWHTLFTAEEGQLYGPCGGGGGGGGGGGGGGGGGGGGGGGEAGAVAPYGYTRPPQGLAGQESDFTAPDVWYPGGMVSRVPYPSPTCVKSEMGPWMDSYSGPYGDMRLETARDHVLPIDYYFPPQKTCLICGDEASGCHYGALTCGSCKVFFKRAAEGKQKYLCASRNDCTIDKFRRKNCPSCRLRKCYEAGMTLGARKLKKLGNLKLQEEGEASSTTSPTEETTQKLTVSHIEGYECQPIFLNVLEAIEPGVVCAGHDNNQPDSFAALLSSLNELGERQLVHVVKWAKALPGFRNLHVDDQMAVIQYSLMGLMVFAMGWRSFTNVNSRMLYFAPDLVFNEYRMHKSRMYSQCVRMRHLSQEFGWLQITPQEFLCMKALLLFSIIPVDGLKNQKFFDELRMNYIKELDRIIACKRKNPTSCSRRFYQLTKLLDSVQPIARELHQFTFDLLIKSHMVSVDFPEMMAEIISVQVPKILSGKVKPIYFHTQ
Kind of data set: Cell-based transactivation assay for human androgen receptor mutant W741L.

Data set [3] deals with LNCaP cells. Briefly: Proliferation assay with LNCaP cells. Format: cell-based. The note with it: Homo sapiens, 168 h, R1881 (1×10^−10) stimulated growth, day 7, read-out: inhibition IC50 (LNCaP). In outline: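 LNCaP cells were grown in phenol red-free RPMI with 5% charcoal-stripped serum and, after 3 days, treated with R1881 (1×10^−10) plus compound. Cell number was measured by Alamar Blue fluorescence at day 0 and day 7. R1881-only signal at day 7 defined stimulated growth, and day-7 signal without R1881 defined basal.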

Data set [4] in a line: Determination of metabolic stability in vitro (calculation of hepatic in vivo blood clearance). Format: in vitro ADME. The note with it: pH 7.4, human liver microsomes, calculated from half-life, read-out: calculated hepatic in vivo blood clearance (CL) (converted). How it is done:
Determination of Metabolic Stability In Vitro (Including Calculation of Hepatic In Vivo Blood Clearance (CL) and of Maximal Oral Bioavailability (Fmax))
The metabolic stability of test compounds in vitro was determined by incubating them at 1 μM with a suspension of human liver microsomes in 100 mM phosphate buffer, pH7.4 (NaH2PO4×H2O+Na2HPO4×2H2O) at a protein concentration of 0.5 mg/ml and at 37° C. The reaction was activated by adding a co-factor mix containing 1.2 mg NADP, 3 IU glucose-6-phosphate dehydrogenase, 14.6 mg glucose-6-phosphate and 4.9 mg MgCl2 in phosphate buffer, pH 7.4. Organic solvent in the incubations was limited to <0.2% dimethylsulfoxide (DMSO) and <1% methanol. During incubation, the microsomal suspensions were continuously shaken and aliquots were taken at 2, 8, 16, 30, 45 and 60 min, to which equal volumes of cold methanol were immediately added. Samples were freezed at −20° C. over night, subsequently centrifuged for 15 minutes at 3000 rpm and the supernatant was analyzed with an Agilent 1200 HPLC-system with LCMS/MS detection.
The half-life of a test compound was determined from the concentration-time plot. From the half-life the intrinsic clearances were calculated. Together with the additional parameters liver blood flow, specific liver weight and microsomal protein content the hepatic in vivo blood clearance (CL) and the maximal oral bioavailability (Fmax) were calculated for the different species. The following parameter values were used: Liver blood flow—1.3 l/h/kg human; specific liver weight—21 g/kg human; microsomal protein content—40 mg/g.
With the described assay only phase-I metabolism of microsomes is reflected, e.g. typically oxidoreductive reactions by cytochrome P450 enzymes and flavin mono-oxygenases (FMO) and hydrolytic reactions by esterases (esters and amides).

The mark [5] stands for this setting: day 7, read-out: Antiproliferative activity VCaP IC50.
[6] abbreviates: day 7, read-out: inhibition IC50 (VCaP).

Consider `CN1C(=S)N(c2ccc(C#N)c(C(F)(F)F)c2)C(=O)C1(C)C` [2-(Trifluoromethyl)-4-(3,4,4-trimethyl-5-oxo-2-thioxoimidazolidin-1-yl)benzonitrile, reference compound], for which the concentration for half-maximal inhibition (IC50) – broadly, the midpoint of a concentration-inhibition curve – in data set [1] (setting [5]) is more than 1000 nM; in data set [2], 159 nM.

Consider `CC1(C)C(=O)N(c2ccc(C#N)c(C(F)(F)F)c2)C(=S)N1CCCCO` [4-[3-(4-Hydroxybutyl)-4,4-dimethyl-5-oxo-2-thioxoimidazolidin-1-yl]-2-(trifluoromethyl)benzonitrile, reference compound], for which the half-maximal inhibitory concentration (IC50) is more than 1000 nM in data set [1] (setting [5]) and 89.7 nM in data set [2].

With `CC1(C)C(=O)N(c2ccc(C#N)c(C(F)(F)F)c2)C(=S)N1Cc1ccc(F)cc1` [Comparative data^4], the half-inhibitory concentration (IC50) in data set [1] (setting [5]) and in data set [2] was more than 1000 nM in each case.

For the compound `CC1(C)C(=O)N(c2ccc(C#N)c(C(F)(F)F)c2)C(=S)N1Cc1ccccc1` [Comparative data^4], the results for the IC50 in data set [1] (setting [5]) and in data set [2] were more than 1000 nM and 166 nM, respectively.

For `CC1(C)C(=O)N(c2ccc(C#N)c(C(F)(F)F)c2)C(=S)N1Cc1ccc(-n2ccnc2)nc1` [Example 1, 4-(3-{[6-(1H-Imidazol-1-yl)pyridin-3-yl]methyl}-4,4-dimethyl-5-oxo-2-thioxoimidazolidin-1-yl)-2-(trifluoromethyl)benzonitrile], the IC50 in data set [3] is 59 nM; in data set [1] (setting [5]), 291 nM; in data set [2] it was 173 nM. Further, the CLhep predicted at 1 µM in data set [4] was 4.33 mL/min/kg.

Take `CC1(C)C(=O)N(c2ccc(C#N)c(C(F)(F)F)c2)C(=S)N1Cc1ccc(C(F)(F)F)nc1` [Example 2, 4-(4,4-Dimethyl-5-oxo-2-thioxo-3-{[6-(trifluoromethyl)pyridin-3-yl]methyl}imidazolidin-1-yl)-2-(trifluoromethyl)benzonitrile]: the IC50 in data set [3] was found to be 314 nM; in data set [1] (setting [5]), 247 nM; in data set [2], 86.7 nM. The CLhep predicted at 1 µM in data set [4] is 6.5 mL/min/kg.

Consider `CC1(C)C(=O)N(c2ccc(C#N)c(C(F)(F)F)c2)C(=S)N1Cc1ccc(N2CCOCC2)nc1` [Example 4, 4-(4,4-Dimethyl-3-{[6-(morpholin-4-yl)pyridin-3-yl]methyl}-5-oxo-2-thioxoimidazolidin-1-yl)-2-(trifluoromethyl)benzonitrile], for which the half-inhibitory concentration (IC50) in data set [3] turned out to be 117 nM; in data set [1] (setting [5]), 124 nM; in data set [1] (setting [6]) it was 124 nM; in data set [2] it was 89.2 nM.

Take `CC1(C)C(=O)N(c2ccc(C#N)c(C(F)(F)F)c2)C(=S)N1Cc1ccc(N2CCS(=N)(=O)CC2)nc1` [Example 9, 4-(3-{[6-(1-Imino-1-oxido-1λ^6-thiomorpholin-4-yl)pyridin-3-yl]methyl}-4,4-dimethyl-5-oxo-2-thioxoimidazolidin-1-yl)-2-(trifluoromethyl)benzonitrile]: the figures for the IC50 in data set [3] and in data set [2] were 303 nM and 275 nM, respectively. Moreover, the CLhep predicted at 1 µM in data set [4] is 8 mL/min/kg.

`CC(C)(O)COc1ccc(CN2C(=S)N(c3ccc(C#N)c(C(F)(F)F)c3)C(=O)C2(C)C)cn1` [Example 10, 4-(3-{[6-(2-Hydroxy-2-methylpropoxy)pyridin-3-yl]methyl}-4,4-dimethyl-5-oxo-2-thioxoimidazolidin-1-yl)-2-(trifluoromethyl)benzonitrile]: the IC50 in data set [3] is 283 nM; in data set [1] (setting [5]), 229 nM; in data set [1] (setting [6]), 229 nM; in data set [2], 285 nM. Besides, the CLhep predicted at 1 µM in data set [4] is 5.83 mL/min/kg.

Take `Cc1nc(C(F)(F)F)ccc1CN1C(=S)N(c2ccc(C#N)c(C(F)(F)F)c2)C(=O)C1(C)C` [Example 13, 4-(4,4-Dimethyl-3-{[2-methyl-6-(trifluoromethyl)pyridin-3-yl]methyl}-5-oxo-2-thioxoimidazolidin-1-yl)-2-(trifluoromethyl)benzonitrile]: the IC50 in data set [3] was found to be 124 nM; in data set [1] (setting [5]), 300 nM; in data set [2], 93.7 nM. The CLhep predicted at 1 µM in data set [4] is 3.17 mL/min/kg.
